Data published in ChEMBL document CHEMBL1135795, “Bacteriopurpurinimides: highly stable and potent photosensitizers for photodynamic therapy” (J Med Chem, 2002).

Test: Partition coefficient (logP)
Format: physicochemical
Settings: octanol/water

| Compound | logP | logP (read-out: logP) |
| --- | --- | --- |
| CCCCCCCOC(C)C1=C(C)c2cc3[nH]c(c4c5[nH]c(cc6nc(cc1n2)[C@H](C)[C@H]6CC)c(C)c5C(=O)N(CCCCCC)C4=O)[C@@H](CCC(=O)OCCC)[C@@H]3C (stereo partly drawn) | 11.19 |  |
| CCCCCCN1C(=O)c2c3nc(cc4[nH]c(cc5nc(cc6[nH]c2c(c6C)C1=O)[C@H](CC)[C@H]5C)c(C(C)OC)c4C)[C@@H](C)[C@@H]3CCC(=O)OCCC (stereo partly drawn) |  | 8.18 |
| CCCCCCN1C(=O)C2=C(C)c3cc4[nH]c(cc5[nH]c(cc6nc(c(c2n3)C1=O)[C@@H](CCC(=O)OCCC)[C@@H]6C)c(C)c5C(C)OCCC)[C@H](C)[C@H]4CC (stereo partly drawn) | 9.16 |  |
